Tests used:
SH-SY5Y cells [1] = experiment: Lysosome localization and number, LysoTracker Deep Red confocal microscopy; format: cell-based; conditions: 200 μM, 24 hs
Text: Lysosomes are the final destination of the autophagic pathway. LysoTracker™ fluorescent probes, dyes that preferentially accumulate in vesicles with acidic pH, are widely used for tracing lysosomes in living and fixed cells in order to study organelle localization, their resident proteins, assess organelle functionality, quantify lysosome numbers and abnormalities in vesicular pH (Eskelinen E L, Schmidt C K, Neu S, et al. Disturbed cholesterol traffic but normal proteolytic function in LAMP-1/LAMP-2 double-deficient fibroblasts. Mol Biol Cell 2004; 15(7): 3132-45), and to examine the efficiency of autophagosome/lysosome fusion in live cells (González-Polo R A, Boya P, Pauleau A L, et al. The apoptosis/autophagy paradox: autophagic vacuolization before apoptotic death. J Cell Sci 2005; 118 (Pt 14): 3091-102.).
The effect of Pegasus on lysosomal activity in SH-SY5Y cells was estimated by visualizing the localization and number of lysosomes, marked by LysoTracker™ Deep Red (ThermoFisher #L12492), after treatment with 200 μM of Pegasus for 24 hs. After incubation, cells were fixed in PFA 4% prepared for confocal microscopy. Images were acquired in a ZEISS LSM800 confocal microscope.

[2] = tested on: IL-1β release in Bv2 cells; experiment: IL-1β release in LPS-stimulated microglial cells (ELISA); format: cell-based, murine
Protocol: To evaluate the effect of Pegasus on LPS-activated microglia, Bv2 cells were pretreated with Pegasus (D9) (200 μM). After 4 h of treatment, cells were stimulated with LPS (10 μg/mL, final concentration) during 24 h. Doxycycline (Doxy) (200 μM) and Dexamethasone (Dexa) (200 μM) were used as a positive control of anti-inflammatory effects. IL-1β cytokine concentration was measured by ELISA assays (Mouse IL-1 beta ELISA Kit, Cat #BMS6002, Invitrogen), according to instructions provided by the manufacturer.

SH-SY5Y cells [3] = experiment: MTT cytotoxicity assay in neuroblastoma SH-SY5Y cells; format: cell-based; conditions: 1, 10 and 20 μM, 24 h
Protocol: The impact of Pegasus (D9) on cellular viability was studied in SH-SY5Y neuroblastoma cell lines using the colorimetric Thiazolyl Blue Tetrazolium […] (MTT) metabolic activity assay (Mosmann T. Rapid colorimetric assay for cellular growth and survival: application to proliferation and cytotoxicity assays. J Immunol Methods 1983; 65(1-2): 55-63), which reports viable cell number based on mitochondrial activity.
SH-SY5Y cells were seeded in 96-well plates at 15,000 cells/well with 100 μl of DMEM supplemented with 10% Fetal Bovine Serum (FBS) and 1% Antibiotics/Antimycotics, and incubated for 24 h at 37° C. and 5% CO2. Afterwards, cells were treated with a 25 μl aliquot of a D9 solution 5 μM, 50 μM or 100 μM (final concentration in well 1 μM, 10 μM and 20 μM, respectively) and incubated for 24 h. To determine cell viability, the MTT assay was used as previously described by Mosmann (1983). All experiments were performed in sextuplicate, and the relative cell viability (%) was expressed as a percentage relative to the untreated control condition.

[4] = target: T1, recombinant human AS (α-synuclein) (Homo sapiens, UniProt P37840); experiment: Thioflavin T fluorescence assay of AS amyloid aggregation; format: biochemical; conditions: 70 μM AS, 10 or 50 μM compound, 37° C., 600 rpm, 20 mM HEPES pH 7.4
T1 construct: made in house
Protocol: In order to evaluate the effect of Pegasus (D9) on AS amyloid fibril formation, aggregation reactions were performed according to LeVine (LeVine H, 3rd. Thioflavine T interaction with synthetic Alzheimer's disease beta-amyloid peptides: detection of amyloid aggregation in solution. Protein Sci 1993; 2(3): 404-10; LeVine H, 3rd. Quantification of beta-sheet amyloid fibril structures with thioflavin T. Methods Enzymol 1999; 309: 274-84.). In brief, the formation of cross-ß structures were followed by adding Thioflavin T (ThT), a fluorescent cross-β reporter probe, to aliquots extracted from the incubation mixture at different times.
Expression and purification of recombinant human AS were performed as previously described (Hoyer W, Antony T, Cherny D, Heim G, Jovin T M, Subramaniam V. Dependence of AS aggregate morphology on solution conditions. J Mol Biol 2002; 322(2): 383-93), and purity was assessed by SDS-PAGE. […] The protein concentration was determined by absorbance at 275 nm using the extinction coefficient ε275=5600 cm^−1 M^−1. […]
For aggregation reactions, aliquots of monomeric AS (70 μM) in 20 mM HEPES, pH 7.4 were incubated in a Thermomixer comfort (Eppendorf) at 37° C. and 600 rpm in the absence or presence of 10 or 50 μM D9. Aggregation was monitored with a Horiba FluoroMax-4 spectrofluorometer using the ThT fluorescence assay.

With C[C@H]1c2ccc(NC(=O)CCC(=O)NCCc3ccc(O)c(O)c3)c(O)c2C(=O)C2=C(O)[C@]3(O)C(=O)C(C(N)=O)=C(O)CC3[C@@H](O)C21 (some centres unmarked) [Pegasus] the “Localization and number of lysosomes (lysosome biogenesis)” value (SH-SY5Y cells [1]) was “does not interfere with the biogenesis of lysosomes”, the “IL-1β production after LPS stimulation” value ([2]; 200 μM pretreatment 4 h, then LPS 10 μg/mL 24 h) was “reduced production of IL-1β” and the “IL-1β release, compound alone” value ([2]; compound alone, no LPS) was “did not lead to a significantly increase of IL-1β release”. The “Cytotoxicity (relative cell viability, MTT)” value (SH-SY5Y cells [3]) was “no cytotoxic effect” and the “Inhibition of AS aggregation (ThT fluorescence)” value [4] was “able to inhibit AS aggregation”.
